# Measured values from ChEMBL document CHEMBL3797140, “Acridin-3,6-dialkyldithiourea hydrochlorides as new photosensitizers for photodynamic therapy of mouse leukemia cells” (Bioorg Med Chem, 2016).
# The source made the active and inactive calls. The calls are words filed in the database; no cut-off is given here.
# Legend:
# L1210 [1] = test: Phototoxicity against mouse L1210 cells assessed as cell viability preincubated for 1 hr followed by 1.05 J/cm2 UV-A irradiation measured after 48 hrs by MTT assay; assay type: functional, cell-based; conditions: L1210, light or radiation study
# [2] = Dark toxicity against mouse L1210 cells assessed as cell viability after 48 hrs by MTT assay; assay type: cell-based
# [3] = Dark toxicity against mouse NIH/3T3 cells assessed as cell viability after 48 hrs by MTT assay; assay type: cell-based, NIH3T3
# [4] = Phototoxicity against mouse NIH/3T3 cells assessed as cell viability preincubated for 1 hr followed by 1.05 J/cm2 UV-A irradiation measured after 48 hrs by MTT assay; assay type: cell-based; conditions: NIH3T3, light or radiation study
# Calf thymus DNA = test: Binding affinity to calf thymus DNA by UV-visible spectrophotometry; assay type: nucleic-acid assay; conditions: Bos taurus
# L1210 [5] = test: Induction of ROS generation in mouse L1210 cells at 0.5 uM preincubated for 1 hr followed by 1.05 J/cm2 UV-A irradiation by fluorescence microscopy in presence of trolox; assay type: functional, cell-based
# [6] = Octanol-water partition coefficient, logP of the compound; assay type: physicochemical
# L1210 [7] = test: Drug uptake in mouse L1210 cells at 1 uM after 15 mins to 6 hrs by fluorescence microscopy; assay type: ADME, cell-based; conditions: l1210, 1 µM
# [8] = Drug uptake in plasma membrane of mouse L1210 cells at 1 uM after 1 to 6 hrs by fluorescence microscopy; assay type: ADME, cell-based; conditions: l1210, 1 µM
# [9] = Drug uptake in cytosol of mouse L1210 cells at 1 uM after 1 to 6 hrs by fluorescence microscopy; assay type: ADME, cell-based
# L1210 [10] = test: Induction of cell cycle arrest in mouse L1210 cells assessed as accumulation at sub-G0 phase at 0.5 uM preincubated for 1 hr measured after 4 hrs by propidium iodide staining-based flow cytometry in absence of light (reference value: 16.6 +/- 0.4%); conditions: l1210, 4 h
# L1210 [11] = test: Induction of cell cycle arrest in mouse L1210 cells assessed as accumulation at sub-G0 phase at 1 uM preincubated for 1 hr measured after 4 hrs by propidium iodide staining-based flow cytometry in absence of light (reference value: 16.6 +/- 0.4%); conditions: l1210, 4 h
# L1210 [12] = test: Induction of cell cycle arrest in mouse L1210 cells assessed as accumulation at sub-G0 phase at 0.5 uM preincubated for 1 hr measured after 24 hrs by propidium iodide staining-based flow cytometry in absence of light (reference value: 16.6 +/- 0.4%); conditions: l1210, 24 h
# L1210 [13] = test: Induction of cell cycle arrest in mouse L1210 cells assessed as accumulation at sub-G0 phase at 1 uM preincubated for 1 hr measured after 24 hrs by propidium iodide staining-based flow cytometry in absence of light (reference value: 16.6 +/- 0.4%); conditions: l1210, 24 h
# L1210 [14] = test: Induction of cell cycle arrest in mouse L1210 cells assessed as accumulation at sub-G0 phase at 0.5 uM preincubated for 1 hr followed by 1.05 J/cm2 UV-A irradiation measured after 4 hrs by propidium iodide staining-based flow cytometry (reference value: 16.8 +/- 0.6%); assay type: functional
# L1210 [15] = test: Induction of cell cycle arrest in mouse L1210 cells assessed as accumulation at sub-G0 phase at 1 uM preincubated for 1 hr followed by 1.05 J/cm2 UV-A irradiation measured after 4 hrs by propidium iodide staining-based flow cytometry (reference value: 16.8 +/- 0.6%); assay type: functional
# L1210 [16] = test: Induction of cell cycle arrest in mouse L1210 cells assessed as accumulation at sub-G0 phase at 0.5 uM preincubated for 1 hr followed by 1.05 J/cm2 UV-A irradiation measured after 24 hrs by propidium iodide staining-based flow cytometry (reference value: 16.8 +/- 0.6%); assay type: functional
# L1210 [17] = test: Induction of cell cycle arrest in mouse L1210 cells assessed as accumulation at sub-G0 phase at 1 uM preincubated for 1 hr followed by 1.05 J/cm2 UV-A irradiation measured after 24 hrs by propidium iodide staining-based flow cytometry (reference value: 16.8 +/- 0.6%); assay type: functional
# L1210 [18] = test: Induction of cytomorphological changes in mouse L1210 cells at 0.5 uM preincubated for 1 hr measured after 6 to 24 hrs by Hoechst 33342 staining-based fluorescence microscopy in the absence of light; assay type: cell-based; conditions: l1210, 0.5 µM
# L1210 [19] = test: Induction of cytomorphological changes in mouse L1210 cells assessed as cell shrinkage at 0.5 uM preincubated for 1 hr followed by 1.05 J/cm2 UV-A irradiation measured after 6 to 24 hrs by Hoechst 33342 staining-based fluorescence microscopy; assay type: functional
# L1210 [20] = test: Induction of cytomorphological changes in mouse L1210 cells assessed as condensed chromatin at 0.5 uM preincubated for 1 hr followed by 1.05 J/cm2 UV-A irradiation measured after 6 to 24 hrs by Hoechst 33342 staining-based fluorescence microscopy; assay type: functional, cell-based
# L1210 [21] = test: Induction of apoptosis in mouse L1210 cells assessed as late apoptotic cells at 0.5 uM preincubated for 1 hr followed by 1.05 J/cm2 UV-A irradiation measured after 24 hrs by Hoechst 33342 and propidium iodide staining-based fluorescence microscopy; assay type: functional, cell-based
# L1210 [22] = test: Phototoxicity in mouse L1210 cells at 0.5 uM preincubated for 1 hr followed by 1.05 J/cm2 UV-A irradiation measured after 6 hrs by lactate dehydrogenase leakage assay; assay type: functional, cell-based
# L1210 [23] = test: Phototoxicity in mouse L1210 cells at 1 uM preincubated for 1 hr followed by 1.05 J/cm2 UV-A irradiation measured after 24 hrs by lactate dehydrogenase leakage assay; assay type: functional, cell-based
# L1210 [24] = test: […] in mouse L1210 cells at 1 uM preincubated for 1 hr followed by 1.05 J/cm2 UV-A irradiation measured after 24 hrs by lactate dehydrogenase leakage assay; assay type: cell-based; conditions: l1210, 24 h
# L1210 [25] = test: Induction of DNA fragmentation in mouse L1210 cells at 0.5 to 1 uM preincubated for 1 hr followed by 1.05 J/cm2 UV-A irradiation measured after 6 hrs by agarose gel electrophoresis; assay type: functional, cell-based
# L1210 [26] = test: Induction of apoptosis in mouse L1210 cells at 0.5 uM preincubated for 1 hr followed by 1.05 J/cm2 UV-A irradiation measured after 5 hrs by Annexin Red based flow cytometry; assay type: functional
smiles,measurement,setting,value
CCCNC(=S)Nc1ccc2cc3ccc(NC(=S)NCCC)cc3nc2c1.Cl,IC50,L1210 [1],0.48 µM
same,IC50 at 48 h,[2],5.7 µM
same,IC50 at 48 h,[3],43.5 µM
same,IC50,[4],4.4 µM
same,K,Calf thymus DNA,6.8 ×10⁵ /M
same,Activity,L1210 [5],inactive
same,logP,[6],1.28
same,Drug uptake,L1210 [7],Active
same,Drug uptake,[8],Not Active
same,Drug uptake,[9],Not Active
same,Activity,L1210 [10],17.7%
same,Activity,L1210 [11],17.2%
same,Activity,L1210 [12],25.9%
same,Activity,L1210 [13],21.1%
same,Activity,L1210 [14],22.5%
same,Activity,L1210 [15],32.5%
same,Activity,L1210 [16],43.2%
same,Activity,L1210 [17],47.9%
same,Activity,L1210 [18],Non-toxic
same,Activity,L1210 [19],Active
same,Activity,L1210 [20],Active
same,Activity,L1210 [21],Active
same,Activity,L1210 [22],inactive
same,Activity,L1210 [23],Active
same,Activity,L1210 [24],Non-toxic
same,Activity,L1210 [25],Active
same,Activity,L1210 [26],24%
